Experimental data: ChEMBL document CHEMBL4311991, “Design, synthesis, and biological evaluation of 1-substituted -2-aryl imidazoles targeting tubulin polymerization as potential anticancer agents” (Eur J Med Chem, 2019)
Values after ≈ are worked out from the molar mass of the structure shown. Active and inactive are the calls of the source. The calls are words filed in the database; no cut-off is given here.

Columns and labels:
MDA-MB-468 [1] = assay: Antiproliferative activity against human MDA-MB-468 cells assessed as reduction in cell viability after 72 hrs by MTT assay; type: functional, cell-based; conditions: MDA-MB-468, 72 h
MDA-MB-231 = assay: Antiproliferative activity against human MDA-MB-231 cells assessed as reduction in cell viability after 72 hrs by MTT assay; type: functional, cell-based; conditions: MDA-MB-231, 72 h
T47D = assay: Antiproliferative activity against human T47D cells assessed as reduction in cell viability after 72 hrs by MTT assay; type: functional, cell-based
HCT-15 = assay: Antiproliferative activity against human HCT15 cells assessed as reduction in cell viability after 72 hrs by MTT assay; type: functional, cell-based; conditions: HCT-15, 72 h
HT-29 = assay: Antiproliferative activity against human HT-29 cells assessed as reduction in cell viability after 72 hrs by MTT assay; type: functional, cell-based; conditions: HT-29, 72 h
HeLa = assay: Antiproliferative activity against human HeLa cells assessed as reduction in cell viability after 72 hrs by MTT assay; type: functional, cell-based
HUVEC = assay: Cytotoxicity against HUVEC assessed as reduction in cell viability after 72 hrs by MTT assay; type: cell-based; conditions: Homo sapiens
Tubulin (Sus scrofa) [2] = molecular target: T1, Tubulin (Sus scrofa) (UniProt P02554+P02550); assay: (§1) Inhibition of pig brain tubulin polymerization in presence of GTP by spectrophotometric analysis
T1 sequence (P02550 whole entry, looked up): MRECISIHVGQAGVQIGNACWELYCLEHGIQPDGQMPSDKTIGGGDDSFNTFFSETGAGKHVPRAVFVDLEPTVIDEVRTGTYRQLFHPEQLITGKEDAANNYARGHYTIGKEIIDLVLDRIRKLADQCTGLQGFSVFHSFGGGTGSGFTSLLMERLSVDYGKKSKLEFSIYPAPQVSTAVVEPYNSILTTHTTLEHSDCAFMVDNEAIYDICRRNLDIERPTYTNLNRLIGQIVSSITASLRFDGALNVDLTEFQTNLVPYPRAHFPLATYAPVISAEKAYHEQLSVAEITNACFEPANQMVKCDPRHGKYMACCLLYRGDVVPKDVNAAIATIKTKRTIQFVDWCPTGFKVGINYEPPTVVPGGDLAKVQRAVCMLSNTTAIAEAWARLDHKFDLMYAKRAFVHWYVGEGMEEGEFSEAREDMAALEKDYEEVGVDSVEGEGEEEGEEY
T1 sequence (P02554 whole entry, looked up): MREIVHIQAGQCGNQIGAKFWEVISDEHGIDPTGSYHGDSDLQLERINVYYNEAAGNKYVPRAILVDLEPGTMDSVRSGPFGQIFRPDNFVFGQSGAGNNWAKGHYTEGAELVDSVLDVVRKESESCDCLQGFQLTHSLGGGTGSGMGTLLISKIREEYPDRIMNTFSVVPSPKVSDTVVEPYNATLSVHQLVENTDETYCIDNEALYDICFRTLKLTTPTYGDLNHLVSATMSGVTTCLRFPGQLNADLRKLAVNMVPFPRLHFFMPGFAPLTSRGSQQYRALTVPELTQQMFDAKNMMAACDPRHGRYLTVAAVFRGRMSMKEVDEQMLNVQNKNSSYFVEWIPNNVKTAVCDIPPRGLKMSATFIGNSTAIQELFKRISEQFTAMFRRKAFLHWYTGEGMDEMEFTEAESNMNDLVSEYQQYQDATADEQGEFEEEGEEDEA

Tubulin = Tubulin (Sus scrofa, UniProt P02554+P02550); assay: as §1
Tubulin (Sus scrofa) [3] = molecular target: T1, Tubulin (Sus scrofa); assay: Inhibition of pig brain tubulin polymerization at 3 to 6 uM in presence of GTP by spectrophotometric analysis relative to control
Mus musculus [4] = species on record: Mus musculus; assay: Inhibition of tubulin polymerization in mouse B16F10 cells assessed as disruption of microtubule network at 400 nM incubated for 6 hrs by DAPI staining based confocal microscopy; type: cell-based
MDA-MB-468 [5] = assay: Induction of cell cycle arrest in human MDA-MB-468 cells assessed as accumulation of cells at G2/M phase at IC50 concentration by propidium iodide staining-based flow cytometric analysis; type: functional; conditions: TDE = time-dependent effect
MDA-MB-468 [6] = assay: Induction of apoptosis in human MDA-MB-468 cells assessed as viable cells at 100 nM after 24 hrs by Annexin-FITC/propidium iodide staining based flow cytometry (reference value: 96.8%); type: functional; conditions: MDA-MB-468, 24 h, read-out: Activity
MDA-MB-468 [7] = assay: Induction of apoptosis in human MDA-MB-468 cells assessed as early apoptotic cells at 100 nM after 24 hrs by Annexin-FITC/propidium iodide staining based flow cytometry (reference value: 0.35 to 1.25%); type: functional
MDA-MB-468 [8] = assay: Induction of apoptosis in human MDA-MB-468 cells assessed as late apoptotic cells at 100 nM after 24 hrs by Annexin-FITC/propidium iodide staining based flow cytometry (reference value: 1.03 to 1.59%); type: functional
MDA-MB-468 [9] = assay: Induction of apoptosis in human MDA-MB-468 cells assessed as necrotic cells at 100 nM after 24 hrs by Annexin-FITC/propidium iodide staining based flow cytometry (reference value: 0.97 to 1.29%); type: functional
MDA-MB-468 [10] = assay: Induction of apoptosis in human MDA-MB-468 cells assessed as viable cells at 100 nM after 48 hrs by Annexin-FITC/propidium iodide staining based flow cytometry (reference value: 96.8%); type: functional; conditions: MDA-MB-468, 48 h, read-out: Activity
MDA-MB-468 [11] = assay: Induction of apoptosis in human MDA-MB-468 cells assessed as early apoptotic cells at 100 nM after 48 hrs by Annexin-FITC/propidium iodide staining based flow cytometry (reference value: 0.35 to 1.25%); type: functional
MDA-MB-468 [12] = assay: Induction of apoptosis in human MDA-MB-468 cells assessed as late apoptotic cells at 100 nM after 48 hrs by Annexin-FITC/propidium iodide staining based flow cytometry (reference value: 1.03 to 1.59%); type: functional
MDA-MB-468 [13] = assay: Induction of apoptosis in human MDA-MB-468 cells assessed as necrotic cells at 100 nM after 48 hrs by Annexin-FITC/propidium iodide staining based flow cytometry (reference value: 0.97 to 1.29%); type: functional
MDA-MB-468 [14] = assay: Induction of apoptosis in human MDA-MB-468 cells assessed as viable cells at 100 nM after 72 hrs by Annexin-FITC/propidium iodide staining based flow cytometry (reference value: 96.8%); type: functional; conditions: MDA-MB-468, 72 h, read-out: Activity
MDA-MB-468 [15] = assay: Induction of apoptosis in human MDA-MB-468 cells assessed as early apoptotic cells at 100 nM after 72 hrs by Annexin-FITC/propidium iodide staining based flow cytometry (reference value: 0.35 to 1.25%); type: functional
MDA-MB-468 [16] = assay: Induction of apoptosis in human MDA-MB-468 cells assessed as late apoptotic cells at 100 nM after 72 hrs by Annexin-FITC/propidium iodide staining based flow cytometry (reference value: 1.03 to 1.59%); type: functional
MDA-MB-468 [17] = assay: Induction of apoptosis in human MDA-MB-468 cells assessed as necrotic cells at 100 nM after 72 hrs by Annexin-FITC/propidium iodide staining based flow cytometry (reference value: 0.97 to 1.29%); type: functional
[18] = Retention time of the compound using acetonitrile:water at ratio of 50:50 as mobile phase by reverse-phase HPLC analysis; type: physicochemical; conditions: buffer
[19] = Aqueous solubility of the compound at 1 mg/ml after 24 hrs by shake flask method based HPLC analysis; type: physicochemical
[20] = 1-Octanol/water partition coefficient, log P of compound at 1 mg after 1 hr by HPLC analysis; type: physicochemical
MDA-MB-468 [21] = assay: Antitumor activity against human MDA-MB-468 cells xenografted in nude mouse assessed as tumour growth inhibition at 30 mg/kg, ip administered every other day for 21 days relative to control; type: functional; conditions: MDA-MB-468, ip, 504 h, read-out: TGI
MDA-MB-468 [22] = assay: Antitumor activity against human MDA-MB-468 cells xenografted in nude mouse assessed as tumour growth inhibition at 60 mg/kg, ip administered every other day for 21 days relative to control; type: functional; conditions: MDA-MB-468, ip, 504 h, read-out: TGI
[23] = Toxicity in nude mouse xenografted with human MDA-MB-468 cells assessed as effect on body weight at 30 to 60 mg/kg, ip administered every other day for 21 days; type: organism-based; conditions: in vivo, 504 h
[24] = Ratio of compound aqueous solubility to CA-4 aqueous solubility at 1 mg/ml after 24 hrs by shake flask method based HPLC analysis; type: physicochemical; conditions: buffer
Mus musculus [25] = species on record: Mus musculus; assay: Inhibition of tubulin polymerization in mouse B16F10 cells assessed as disruption of microtubule network at 200 nM incubated for 6 hrs by DAPI staining based confocal microscopy; type: cell-based

Structure (SMILES)	IC50 (MDA-MB-468 [1]) [nM]	IC50 (MDA-MB-231) [nM]	IC50 (T47D) [nM]	IC50 (HCT-15) [nM]	IC50 (HT-29) [nM]	IC50 (HeLa) [nM]	IC50 (HUVEC) [nM]	Activity (MDA-MB-468 [5])	viability at 0.1 µM (MDA-MB-468 [6]) [%]	Activity (MDA-MB-468 [7]) [%]	Activity (MDA-MB-468 [8]) [%]	Activity (MDA-MB-468 [9]) [%]	viability at 0.1 µM (MDA-MB-468 [10]) [%]	Activity (MDA-MB-468 [11]) [%]	Activity (MDA-MB-468 [12]) [%]	Activity (MDA-MB-468 [13]) [%]	viability at 0.1 µM (MDA-MB-468 [14]) [%]	Activity (MDA-MB-468 [15]) [%]	Activity (MDA-MB-468 [16]) [%]	Activity (MDA-MB-468 [17]) [%]	further results
COc1ccc(-n2ccnc2-c2cc(OC)c(OC)c(OC)c2)cc1N	90	1040	500	100	200	80	58500	Tde	94.5	0.38	3.56	1.51	79.6	1.18	15	4.19	72.3	1.53	22.9	3.27	inhibition (Tubulin (Sus scrofa) [2]): Dose-dependent effect; IC50 (Tubulin): 400 nM; inhibition (Tubulin (Sus scrofa) [3]): 100%; inhibition (Mus musculus [4]): Active; Retention_time [18]: 5 min; solubility thermodynamic at 24 h [19]: 36.7 µg/mL (≈ 103 µM); logP at 1 h [20]: 1.77; inhibition in vivo at 30 mg/kg (MDA-MB-468 [21]): 48%; inhibition in vivo at 60 mg/kg (MDA-MB-468 [22]): 77%; Activity [23]: Non-Toxic; Ratio [24]: 13
COc1ccc(/C=C\c2cc(OC)c(OC)c(OC)c2)cc1O [COMBRETASTATIN A4]	6.5	13.5	14.6	3.2	30.5	9.2	> 100000	Tde	79.2	1.44	15.7	3.67	60	0.84	31.9	7.2	33.4	1.84	55.3	9.4	inhibition (Mus musculus [25]): Active; Retention_time [18]: 12.5 min; inhibition in vivo at 60 mg/kg (MDA-MB-468 [22]): 87.5%
